Results: patent US7144862B2, “Orally administered peptides to ameliorate atherosclerosis” (The Regents of the University of California, priority 2000, dated 2006)

Test: Circular dichroism, percent helicity
Assay type: physicochemical
Protocol: Briefly, spectra were obtained using a cell with a 0.1 cm path length and measurements were taken every nm from 260 nm to 190 nm at 25° C. All the CD spectra were signal averaged by adding four scans, base line corrected and smoothed. Peptide solutions in PBS, pH 7.4, were used at a concentration of 11 μM. Peptide-DMPC complexes (1:20 mol:mol) were used to determine the effect of lipid binding on the helicity of these peptides. These complexes were prepared by adding the appropriate volume of peptide solution to DMPC multilamellar vesicles. DMPC multilamellar vesicles were prepared as follows: A known amount of lipid was dissolved in ethanol and the solvent was removed by evaporating slowly under a thin stream of nitrogen. Residual solvent was removed by storing the lipid film under vacuum overnight. An appropriate volume of PBS, pH 7.4 was added to the thin lipid film to give the required final concentration of DMPC.

Ac-DWLKAFYDKVFEKFKEFF-NH2 [Peptide 5F, Ac-D-W-L-K-A-F-Y-D-K-V-F-E-K-F-K-E-F-F-NH2]
Percent Helicity PBS (11 μM peptide in PBS): 55% | Percent Helicity DMPC (11 μM peptide, Peptide: DMPC 1:20 (mol/mol)): 76%
